In PMC10746543, “Design principles for cyclin K molecular glue degraders” (Nature Chemical Biology, 2023):
Several values for one entry are separate records, joined by “and”; a condition that tells them apart may be missing. Equal values may be shown once. Read-outs that look alike come from different tables or passages of the source.

Columns and labels:
CDK12–cyclin K and DDB1 = molecular target: T1, CDK12–cyclin K and DDB1 (Homo sapiens, UniProt Q16531+Q9NYV4, K965R); assay: TR-FRET ternary complex formation assay (compound titration); format: binding
T1 construct: His6–CDK12 (a.a. 713–1,052); full-length or beta-propeller B domain deletion (ΔBPB: a.a. 396–705 deleted) constructs of His6–DDB1ΔBPB, StrepII–Avi–DDB1, or His6–Spy–DDB1; made in house; host or cells: Trichoplusia ni High Five insect cells (baculovirus)
T1 sequence (Q9NYV4 713-1052 K965R): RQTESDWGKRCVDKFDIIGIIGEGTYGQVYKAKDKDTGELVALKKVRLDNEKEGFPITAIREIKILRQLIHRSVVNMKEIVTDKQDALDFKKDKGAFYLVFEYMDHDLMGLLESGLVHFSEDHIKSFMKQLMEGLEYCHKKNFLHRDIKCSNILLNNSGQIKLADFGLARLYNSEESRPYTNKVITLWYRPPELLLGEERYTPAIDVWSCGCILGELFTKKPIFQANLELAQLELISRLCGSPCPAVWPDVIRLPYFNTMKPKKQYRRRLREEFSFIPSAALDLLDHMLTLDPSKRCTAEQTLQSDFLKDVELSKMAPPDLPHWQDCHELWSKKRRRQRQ
T1 sequence (O75909 1-267 partner): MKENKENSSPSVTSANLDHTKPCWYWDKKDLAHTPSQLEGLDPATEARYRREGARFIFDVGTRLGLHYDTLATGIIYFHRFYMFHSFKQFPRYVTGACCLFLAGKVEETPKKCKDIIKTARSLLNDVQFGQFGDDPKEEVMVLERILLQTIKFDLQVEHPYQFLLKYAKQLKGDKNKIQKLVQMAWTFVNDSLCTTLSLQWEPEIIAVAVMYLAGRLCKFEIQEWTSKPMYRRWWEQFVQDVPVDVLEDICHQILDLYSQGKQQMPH
T1 sequence (Q16531 whole entry): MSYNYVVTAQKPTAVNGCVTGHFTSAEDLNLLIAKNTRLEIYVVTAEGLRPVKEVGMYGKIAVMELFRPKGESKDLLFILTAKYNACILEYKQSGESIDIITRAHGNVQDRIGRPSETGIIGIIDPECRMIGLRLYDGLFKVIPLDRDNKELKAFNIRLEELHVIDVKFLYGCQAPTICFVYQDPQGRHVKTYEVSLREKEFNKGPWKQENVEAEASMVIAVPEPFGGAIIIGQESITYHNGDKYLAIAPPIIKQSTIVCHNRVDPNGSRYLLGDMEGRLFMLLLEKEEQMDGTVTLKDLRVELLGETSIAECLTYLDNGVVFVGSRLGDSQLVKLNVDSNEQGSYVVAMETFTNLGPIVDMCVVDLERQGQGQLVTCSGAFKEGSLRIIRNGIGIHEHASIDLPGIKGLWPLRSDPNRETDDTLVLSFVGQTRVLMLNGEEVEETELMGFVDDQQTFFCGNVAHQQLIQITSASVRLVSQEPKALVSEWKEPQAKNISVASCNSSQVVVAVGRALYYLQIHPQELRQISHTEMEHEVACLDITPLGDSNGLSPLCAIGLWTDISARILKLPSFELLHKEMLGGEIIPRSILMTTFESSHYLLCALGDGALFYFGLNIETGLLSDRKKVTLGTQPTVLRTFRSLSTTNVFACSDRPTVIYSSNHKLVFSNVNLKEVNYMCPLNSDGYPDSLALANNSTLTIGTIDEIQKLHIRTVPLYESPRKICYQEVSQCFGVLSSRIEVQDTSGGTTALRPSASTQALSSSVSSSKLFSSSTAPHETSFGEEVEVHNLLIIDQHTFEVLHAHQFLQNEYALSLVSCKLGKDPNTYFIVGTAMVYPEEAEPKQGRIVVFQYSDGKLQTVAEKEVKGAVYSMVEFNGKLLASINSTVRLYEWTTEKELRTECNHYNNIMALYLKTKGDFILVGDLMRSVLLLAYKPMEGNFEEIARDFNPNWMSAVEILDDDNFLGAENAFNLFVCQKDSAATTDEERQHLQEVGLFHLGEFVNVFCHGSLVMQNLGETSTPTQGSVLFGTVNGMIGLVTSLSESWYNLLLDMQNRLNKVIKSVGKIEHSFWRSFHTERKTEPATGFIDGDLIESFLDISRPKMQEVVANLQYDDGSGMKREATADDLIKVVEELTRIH
In short: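 A time delay of 70 μs preceded acquisition, limiting background fluorescence; the ratio of emission at 520 versus 490 nm gave the TR-FRET value.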

CDK2–cyclin A = molecular target: T2, CDK2–cyclin A (Homo sapiens, UniProt P24941); assay: Lanthascreen kinase binding assay, CDK2
T2 construct: purchased Thermo Fisher
Experimental: Lanthascreen experiments were performed using commercially available reagents (Thermo Fisher) and according to the manufacturer’s instructions.

[1] = in vitro complex formation, 50 nM CDK12–cyclin K, 100 nM DDB1, text and figures, read-out: TR-FRET EC50
[2] = source data sheet correlations, read-out: TR-FRET EC50
[3] = Compound 1.02544 nM, raw replicates, experiment r1-r11
[4] = Compound 3.15521 nM, raw replicates, experiment r1-r11
[5] = Compound 9.46563 nM, raw replicates, experiment r1-r11
[6] = Compound 31.5521 nM, raw replicates, experiment r1-r11
[7] = Compound 99.3891 nM, raw replicates, experiment r1-r11
[8] = Compound 315.521 nM, raw replicates, experiment r1-r11
[9] = Compound 3155.21 nM, raw replicates, experiment r1-r11
[10] = Compound 10002 nM, raw replicates, experiment r1-r11
[11] = Supplementary Table 2, read-out: Lanthascreen IC50 [nM] CDK2

Cc1cc2nc(CNc3nc(N4CCN(C)CC4)nc4c(Br)cnn34)[nH]c2cc1C [DS73, reference compound]
TR-FRET signal at compound concentration 0.468 nM (CDK12–cyclin K and DDB1; compound concentration 0.468 nM, raw replicate titration data): 0.2078 and 0.3464 and 0.3268 and 0.2028 | TR-FRET signal at compound concentration 2.16 nM (CDK12–cyclin K and DDB1; compound concentration 2.16 nM, raw replicate titration data): 0.3181 and 0.4574 and 0.408 and 0.306 | TR-FRET signal at compound concentration 3.6 nM (CDK12–cyclin K and DDB1; compound concentration 3.6 nM, raw replicate titration data): 0.571 and 0.665 and 0.6145 and 0.5357 | TR-FRET signal at compound concentration 7.92001 nM (CDK12–cyclin K and DDB1; compound concentration 7.92001 nM, raw replicate titration data): 1.164 and 1.12 and 0.9555 and 1.048 | TR-FRET signal at compound concentration 15.84 nM (CDK12–cyclin K and DDB1; compound concentration 15.84 nM, raw replicate titration data): 2.581 and 2.125 and 1.889 and 2.1704 | TR-FRET signal at compound concentration 30.96 nM (CDK12–cyclin K and DDB1; compound concentration 30.96 nM, raw replicate titration data): 3.773 and 3.741 and 3.496 and 3.714 | TR-FRET signal at compound concentration 62.6401 nM (CDK12–cyclin K and DDB1; compound concentration 62.6401 nM, raw replicate titration data): 3.949 and 4.21 and 4.046 and 3.965 | TR-FRET signal at compound concentration 125.28 nM (CDK12–cyclin K and DDB1; compound concentration 125.28 nM, raw replicate titration data): 3.981 and 4.358 and 4.135 and 3.99 | TR-FRET signal at compound concentration 244.8 nM (CDK12–cyclin K and DDB1; compound concentration 244.8 nM, raw replicate titration data): 3.942 and 4.1851 and 4.076 and 4.006 | TR-FRET signal at compound concentration 993.601 nM (CDK12–cyclin K and DDB1; compound concentration 993.601 nM, raw replicate titration data): 4.043 and 4.296 and 4.229 and 3.955 | TR-FRET signal at compound concentration 2001.6 nM (CDK12–cyclin K and DDB1; compound concentration 2001.6 nM, raw replicate titration data): 4.148 and 4.166 and 4.035 and 3.981 | EC50 (CDK12–cyclin K and DDB1; [1]): 15 ± 1 nM | EC50 (CDK12–cyclin K and DDB1; [2]): 15.3 nM | Lanthascreen signal, sheet CDK2 (CDK2–cyclin A; [3]): 0.01165 and 0.01109 | Lanthascreen signal, sheet CDK2 (CDK2–cyclin A; [4]): 0.008478 and 0.00993 | Lanthascreen signal, sheet CDK2 (CDK2–cyclin A; Compound 4.57247 nM, experiment r25-r34): 0.01637 | Lanthascreen signal, sheet CDK2 (CDK2–cyclin A; [5]): 0.009994 and 0.009998 | Lanthascreen signal, sheet CDK2 (CDK2–cyclin A; Compound 13.7174 nM, experiment r25-r34): 0.01615 | Lanthascreen signal, sheet CDK2 (CDK2–cyclin A; [6]): 0.01039 and 0.01091 | Lanthascreen signal, sheet CDK2 (CDK2–cyclin A; Compound 41.1523 nM, experiment r25-r34): 0.01569 | Lanthascreen signal, sheet CDK2 (CDK2–cyclin A; [7]): 0.0115 and 0.01029 | Lanthascreen signal, sheet CDK2 (CDK2–cyclin A; Compound 123.457 nM, experiment r25-r34): 0.01519 | Lanthascreen signal, sheet CDK2 (CDK2–cyclin A; [8]): 0.008046 and 0.01008 | Lanthascreen signal, sheet CDK2 (CDK2–cyclin A; Compound 370.37 nM, experiment r25-r34): 0.01387 | Lanthascreen signal, sheet CDK2 (CDK2–cyclin A; [9]): 0.007483 and 0.007205 | Lanthascreen signal, sheet CDK2 (CDK2–cyclin A; Compound 3333.33 nM, experiment r25-r34): 0.009102 | Lanthascreen signal, sheet CDK2 (CDK2–cyclin A; Compound 10000 nM, experiment r25-r34): 0.006383 | Lanthascreen signal, sheet CDK2 (CDK2–cyclin A; [10]): 0.003415 and 0.004039 | IC50 (CDK2–cyclin A; [11]): 6120 nM

Cc1ccc(C(=O)N2CSCC2C(=O)Nc2ncc(C)s2)o1 (stereo not shown) [dCeMM4]
TR-FRET signal (CDK12–cyclin K and DDB1; compound concentration 0.468 nM): 0.3047 and 0.3012 | TR-FRET signal (CDK12–cyclin K and DDB1; compound concentration 2.16 nM): 0.3265 and 0.3171 | TR-FRET signal (CDK12–cyclin K and DDB1; compound concentration 3.6 nM): 0.3554 and 0.3435 | TR-FRET signal (CDK12–cyclin K and DDB1; compound concentration 4.68 nM): 0.2015 and 0.1931 | TR-FRET signal (CDK12–cyclin K and DDB1; compound concentration 7.92001 nM): 0.4106 and 0.4108 | TR-FRET signal (CDK12–cyclin K and DDB1; compound concentration 15.84 nM): 0.4953 and 0.4972 | TR-FRET signal (CDK12–cyclin K and DDB1; compound concentration 21.6 nM): 0.3497 and 0.3693 | TR-FRET signal (CDK12–cyclin K and DDB1; compound concentration 30.96 nM): 0.6975 and 0.7097 | TR-FRET signal (CDK12–cyclin K and DDB1; compound concentration 36 nM): 0.6301 and 0.6713 | TR-FRET signal (CDK12–cyclin K and DDB1; compound concentration 62.6401 nM): 1.033 and 1.024 | TR-FRET signal (CDK12–cyclin K and DDB1; compound concentration 79.2001 nM): 1.054 and 1.091 | TR-FRET signal (CDK12–cyclin K and DDB1; compound concentration 125.28 nM): 1.438 and 1.46 | TR-FRET signal (CDK12–cyclin K and DDB1; compound concentration 158.4 nM): 1.569 and 1.639 | TR-FRET signal (CDK12–cyclin K and DDB1; compound concentration 244.8 nM): 2.039 and 2.019 | TR-FRET signal (CDK12–cyclin K and DDB1; compound concentration 309.6 nM): 2.287 and 2.2 | TR-FRET signal (CDK12–cyclin K and DDB1; compound concentration 626.401 nM): 2.739 and 2.6898 | TR-FRET signal (CDK12–cyclin K and DDB1; compound concentration 993.601 nM): 3.062 and 3.005 | TR-FRET signal (CDK12–cyclin K and DDB1; compound concentration 1252.8 nM): 3.187 and 3.255 | TR-FRET signal (CDK12–cyclin K and DDB1; compound concentration 2001.6 nM): 3.478 and 3.348 | TR-FRET signal (CDK12–cyclin K and DDB1; compound concentration 2448 nM): 3.234 and 3.447 | TR-FRET signal (CDK12–cyclin K and DDB1; compound concentration 9936.01 nM): 3.901 and 3.875 | TR-FRET signal (CDK12–cyclin K and DDB1; compound concentration 20016 nM): 3.981 and 3.769 | EC50 (CDK12–cyclin K and DDB1; [1]): 279 ± 12 nM | EC50 (CDK12–cyclin K and DDB1; sheet MOESM7, read-out: log TR-FRET EC50 (converted)): 279 nM | EC50 (CDK12–cyclin K and DDB1; [2]): 279 nM | Lanthascreen signal, sheet CDK2 (CDK2–cyclin A; Compound 0.038147 nM, raw replicates, experiment r13-r23): 0.01291 and 0.01309 | Lanthascreen signal, sheet CDK2 (CDK2–cyclin A; Compound 0.038147 nM, raw replicates, experiment r48-r58): 0.01261 and 0.01224 | Lanthascreen signal, sheet CDK2 (CDK2–cyclin A; Compound 0.152588 nM, raw replicates, experiment r13-r23): 0.01309 and 0.01357 | Lanthascreen signal, sheet CDK2 (CDK2–cyclin A; Compound 0.152588 nM, raw replicates, experiment r48-r58): 0.01492 and 0.0157 | Lanthascreen signal, sheet CDK2 (CDK2–cyclin A; Compound 0.610352 nM, raw replicates, experiment r13-r23): 0.01337 and 0.01331 | Lanthascreen signal, sheet CDK2 (CDK2–cyclin A; Compound 0.610352 nM, raw replicates, experiment r48-r58): 0.01553 and 0.01443 | Lanthascreen signal, sheet CDK2 (CDK2–cyclin A; [3]): 0.008871 and 0.008854 | Lanthascreen signal, sheet CDK2 (CDK2–cyclin A; [4]): 0.01028 and 0.01056 | Lanthascreen signal, sheet CDK2 (CDK2–cyclin A; [5]): 0.01086 and 0.009918 | Lanthascreen signal, sheet CDK2 (CDK2–cyclin A; Compound 9.76563 nM, raw replicates, experiment r13-r23): 0.01301 and 0.01353 | Lanthascreen signal, sheet CDK2 (CDK2–cyclin A; Compound 9.76563 nM, raw replicates, experiment r48-r58): 0.01491 and 0.01554 | Lanthascreen signal, sheet CDK2 (CDK2–cyclin A; [6]): 0.008252 and 0.009758 | Lanthascreen signal, sheet CDK2 (CDK2–cyclin A; Compound 39.0625 nM, raw replicates, experiment r13-r23): 0.01344 and 0.01357 | Lanthascreen signal, sheet CDK2 (CDK2–cyclin A; Compound 39.0625 nM, raw replicates, experiment r48-r58): 0.01615 and 0.01531 | Lanthascreen signal, sheet CDK2 (CDK2–cyclin A; [7]): 0.01148 and 0.009734 | Lanthascreen signal, sheet CDK2 (CDK2–cyclin A; Compound 156.25 nM, raw replicates, experiment r13-r23): 0.01338 and 0.01316 | Lanthascreen signal, sheet CDK2 (CDK2–cyclin A; Compound 156.25 nM, raw replicates, experiment r48-r58): 0.01495 and 0.01468 | Lanthascreen signal, sheet CDK2 (CDK2–cyclin A; [8]): 0.01013 and 0.01019 | Lanthascreen signal, sheet CDK2 (CDK2–cyclin A; Compound 625 nM, raw replicates, experiment r13-r23): 0.01286 and 0.01329 | Lanthascreen signal, sheet CDK2 (CDK2–cyclin A; Compound 625 nM, raw replicates, experiment r48-r58): 0.01515 and 0.01544 | Lanthascreen signal, sheet CDK2 (CDK2–cyclin A; Compound 2500 nM, raw replicates, experiment r13-r23): 0.01297 and 0.01246 | Lanthascreen signal, sheet CDK2 (CDK2–cyclin A; Compound 2500 nM, raw replicates, experiment r48-r58): 0.0142 and 0.01439 | Lanthascreen signal, sheet CDK2 (CDK2–cyclin A; [9]): 0.01019 and 0.009543 | Lanthascreen signal, sheet CDK2 (CDK2–cyclin A; Compound 10000 nM, raw replicates, experiment r13-r23): 0.01011 and 0.01128 | Lanthascreen signal, sheet CDK2 (CDK2–cyclin A; Compound 10000 nM, raw replicates, experiment r48-r58): 0.01389 and 0.01345 | Lanthascreen signal, sheet CDK2 (CDK2–cyclin A; [10]): 0.009534 and 0.01103 | IC50 (CDK2–cyclin A; Lanthascreen, average, Extended Data Fig. 8, read-out: CDK2 IC50): > 10000 nM | IC50 (CDK2–cyclin A; [11]): > 10000 nM
